# Laboratory results reported in patent US11273144B2, “Compounds and compositions for the treatment of muscular disorders and bone disorders” (Epirium Bio Inc., priority 2012, dated 2022).
# Where “and” joins values, the source holds several entries; their conditions need not be identical. Identical values can stand only once.
# How the values were obtained:
# [1] = system: mouse myoblast cell line, C2C12; assay: Mouse myoblast assay (C2C12, Western blot); format: cell-based; details: C2C12, enantiomers 10 nM to 1000 nM, within 24 hr
# Procedure: Cells or skeletal muscle tissue samples were homogenized in 50 ul lysis buffer (1% triton X-100, 20 mmol/L Tris, 140 mmol/L NaCl, 2 mmol/L EDTA, and 0.1% SDS) with protease and phosphatase inhibitor cocktails supplemented with 1 mmol/L PMSF, 2 mmol/L Na3VO4 and 1 mmol/L NaP. Homogenates were passed through an insulin syringe five times, sonicated for 30 min at 4DC and centrifuged (12,000×g) for 10 min. The total protein content was measured in the supernatant. A total of 40)Ig of protein was loaded onto a 5% or 10% SDS-PAGE, electrotransferred, incubated for 1 h in blocking solution (5% nonfat dry milk in TBS plus 0.1% Tween 20 [TBS-T]), followed by either a 3-h incubation at room temperature or overnight incubation at 4DC with primary antibodies. Primary antibodies were typically diluted 1:1000 or 1:2000 in TBS-T plus 5% bovine serum albumin. Membranes were washed (3× for 5 min) in TBS-T and incubated 1 h at room temperature in the presence of HRP-conjugated secondary antibodies diluted 1:10,000 in blocking solution. Membranes were again washed 3 times in TBS-T, and the immunoblots were developed using an enhanced chemiluminescence detection kit. The band intensities were digitally quantified. All primary antibodies are commercially available. Epicatechin induces follistatin expression, suppresses myostatin expression and accelerates the differentiation of cultured mouse myoblasts into myotubes. […] The mouse myoblast cell line, C2C12, was grown to semi-confluence in 6-well tissue culture plates and then exposed to epicatechin (100 nM) for three days using literature-standardized differentiation inducing media: DMEM supplemented with 2% horse serum. Proteins were extracted, separated by conventional gel electrophoresis and stained as Western blots by reacting with commercially available antibodies specific for markers of muscle cell growth and differentiation. In experiments examining the comparative effects of (−) and (+) epicatechin enantiomers on muscle cells, the cells were grown to semi-confluence in 6 well plates, placed into literature-standardized differentiation medium containing horse serum, and then stimulated for 24 hours with (−) or (+) epicatechin enantiomers, at concentrations ranging from 10 nM to 1000 nM. The cells were then harvested as above, and Western blots were prepared to determine relative expression of PGCla and follistatin, using commercially available, specific, primary antibodies.
# [2] = Effect on body growth of rats on dexamethasone with or without epicatechin; format: in vivo, SD rats; details: for Femur Length / Tibia Length: 37th day; for WEIGHT Avg / LENGTH Avg: group average; for WEIGHT Ind: individual rat
# Procedure: SD rats of the body weight 50-60 g and age 3-4 weeks were divided into 4 groups. […] All dosing were by subcutaneous (SC) mode of administration. Dosing of animals was continued for 36 days. Body weight was measured every alternate day, overall length was measured weekly. Animals were photographed periodically to further support data. Feed intake, general health and movement were assessed routinely. On 37th day animals were sacrificed and femur and tibia length were measured using Vernier Calipers. Blood was collected and stored.
# [3] = epicatechin 3 MPK s/c followed by dexamethasone
# [4] = epicatechin 10 MPK s/c followed by dexamethasone
smiles,measurement,setting,value
"Oc1cc(O)c2c(c1)O[C@@H](c1ccc(O)c(O)c1)[C@@H](O)C2 [(+) epicatechin, (+)−epicatechin]",expression of PGC1u,[1],stimulated
same,expression of follistatin,[1],stimulated
"Oc1cc(O)c2c(c1)O[C@H](c1ccc(O)c(O)c1)[C@H](O)C2 [(−) epicatechin, (−)−epicatechin]",expression of PGC1u,[1],stimulated
same,expression of follistatin,[1],stimulated
"C[C@@H]1C[C@H]2[C@@H]3CCC4=CC(=O)C=C[C@]4(C)[C@@]3(F)[C@@H](O)C[C@]2(C)[C@@]1(O)C(=O)CO [DEX, Dexamethasone]",Femur Length,[2]; dexamethasone s/c alone,22.68 mm
same,Tibia Length,[2]; dexamethasone s/c alone,28.67 mm
same,WEIGHT Avg,"[2]; Day 1, dexamethasone alone SC",59.3 g
same,WEIGHT Ind,"[2]; Day 1, dexamethasone alone SC",55.4 g and 57.7 g and 64.8 g
same,WEIGHT Avg,"[2]; Day 11, dexamethasone alone SC",89.1 g
same,WEIGHT Ind,"[2]; Day 11, dexamethasone alone SC",91.1 g and 84.3 g and 91.9 g
same,LENGTH Avg,"[2]; Day 13, dexamethasone alone SC",15.3 cm
same,LENGTH Avg,"[2]; Day 23, dexamethasone alone SC",14.2 cm
same,WEIGHT Avg,"[2]; Day 23, dexamethasone alone SC",85.7 g
same,WEIGHT Ind,"[2]; Day 23, dexamethasone alone SC",88.0 g and 80.0 g and 89.0 g
same,LENGTH Avg,"[2]; Day 35, dexamethasone alone SC",14.2 cm
same,WEIGHT Avg,"[2]; Day 35, dexamethasone alone SC",96.1 g
same,WEIGHT Ind,"[2]; Day 35, dexamethasone alone SC",103.9 g and 93.1 g and 91.5 g
Oc1cc(O)c2c(c1)O[C@H](c1ccc(O)c(O)c1)[C@H](O)C2 [epicatechin],Femur Length,[2]; [3],29.57 mm
same,Tibia Length,[2]; [3],34.91 mm
same,Femur Length,[2]; [4],31.30 mm
same,Tibia Length,[2]; [4],35.37 mm
